The term IC50 denotes the concentration at which inhibition is half-maximal. As usually defined, the inhibition is the change of the read-out against control, counted positive when it falls.

Common to all, as to experiment: CXCR6 receptor antagonists, dose response, cell-based, beta-arrestin, DiscoveRx, APJ panel, uHTS hits (AID 624129)
Test [1] concerns the target Apelin receptor (Homo sapiens) (UniProt P35414). The settings on record: CXCR6 beta-arrestin (DiscoveRx) antagonist cell assay, APJ.
In test [2] the target is C-X-C chemokine receptor type 6 (Homo sapiens) (UniProt O00574). The settings on record: CXCR6 beta-arrestin (DiscoveRx) antagonist cell assay.
C-X-C chemokine receptor type 6 (Homo sapiens), sequence (O00574 whole entry, looked up): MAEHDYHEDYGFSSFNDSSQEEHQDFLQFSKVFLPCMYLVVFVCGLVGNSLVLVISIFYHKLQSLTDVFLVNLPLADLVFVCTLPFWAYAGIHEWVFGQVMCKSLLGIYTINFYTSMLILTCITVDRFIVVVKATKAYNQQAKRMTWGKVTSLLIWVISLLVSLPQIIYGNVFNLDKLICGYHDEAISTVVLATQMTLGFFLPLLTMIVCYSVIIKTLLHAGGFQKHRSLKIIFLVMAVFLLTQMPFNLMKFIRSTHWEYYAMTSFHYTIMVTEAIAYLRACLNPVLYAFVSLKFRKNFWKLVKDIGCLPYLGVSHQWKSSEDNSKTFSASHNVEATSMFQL
In test [3] the target is C-C chemokine receptor type 6 (Homo sapiens) (UniProt P51684). The settings on record: CXCR6 beta-arrestin (DiscoveRx) antagonist cell assay.
Test [4] concerns the target Beta-galactosidase (Escherichia coli) (UniProt Q8VNN2). The conditions noted are these: CXCR6 beta-arrestin (DiscoveRx) antagonist cell assay, b-galactosidase.
The mark [5] stands for this setting: dose range 1, mean IC50 across replicates.
[6] abbreviates: CXCR6, dose range 1, mean IC50 across replicates.
Where [7] appears, read: CCR6, dose range 1, mean IC50 across replicates.

Activity calls are given as the source filed them. No rule for the calls is given here. Where only a bound is given, the exact number is not on record here.

Beta-galactosidase (Escherichia coli), sequence (Q8VNN2 whole entry, looked up): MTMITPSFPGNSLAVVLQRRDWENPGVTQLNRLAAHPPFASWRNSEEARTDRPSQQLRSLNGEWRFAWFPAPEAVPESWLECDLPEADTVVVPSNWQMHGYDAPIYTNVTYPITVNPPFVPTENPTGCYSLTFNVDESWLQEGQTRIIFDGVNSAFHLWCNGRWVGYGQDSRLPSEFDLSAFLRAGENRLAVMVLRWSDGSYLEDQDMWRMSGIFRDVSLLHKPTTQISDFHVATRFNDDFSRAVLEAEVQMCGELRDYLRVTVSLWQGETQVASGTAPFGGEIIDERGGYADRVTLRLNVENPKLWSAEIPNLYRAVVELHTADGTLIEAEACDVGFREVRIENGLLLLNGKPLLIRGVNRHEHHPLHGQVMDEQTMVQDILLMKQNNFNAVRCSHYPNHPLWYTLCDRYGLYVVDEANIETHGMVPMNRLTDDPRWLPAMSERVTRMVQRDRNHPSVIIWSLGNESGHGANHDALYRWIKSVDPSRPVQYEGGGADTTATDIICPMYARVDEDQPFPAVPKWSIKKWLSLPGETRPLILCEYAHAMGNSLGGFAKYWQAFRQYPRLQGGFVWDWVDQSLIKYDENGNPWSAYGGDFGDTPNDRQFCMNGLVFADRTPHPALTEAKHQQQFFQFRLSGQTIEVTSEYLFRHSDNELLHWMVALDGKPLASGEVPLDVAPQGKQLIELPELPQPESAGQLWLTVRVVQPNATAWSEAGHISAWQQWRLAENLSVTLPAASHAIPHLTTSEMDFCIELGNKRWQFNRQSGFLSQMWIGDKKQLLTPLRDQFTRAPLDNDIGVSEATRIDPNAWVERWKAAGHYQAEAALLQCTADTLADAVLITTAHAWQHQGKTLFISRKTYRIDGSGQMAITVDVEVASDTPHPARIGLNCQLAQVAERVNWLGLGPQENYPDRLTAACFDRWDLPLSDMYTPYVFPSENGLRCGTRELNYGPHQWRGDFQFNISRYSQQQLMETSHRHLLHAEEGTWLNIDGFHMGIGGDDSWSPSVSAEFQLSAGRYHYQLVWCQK

Turning to `CCOC(=O)c1c(C)oc2c1c(C=NCc1ccccn1)c(O)c1ccccc12`, the IC50 in test [1] (dose range 1) was 12.3 µM; in test [1] (setting [5]), 12.3 µM; in test [1] (run 2, dose range 1), above 80 µM; in test [1] (run 3, dose range 1), above 80 µM; in test [2] (CXCR6, dose range 1), 4.14 µM; in test [2] (setting [6]), 3.58 µM. For the same compound, the IC50 in test [2] (CXCR6, run 1, dose range 2) was 1.54 µM; in test [2] (CXCR6, run 2, dose range 1) it was 6.74 µM; in test [2] (CXCR6, run 2, dose range 2), 1.9 µM; in test [3] (CCR6, dose range 1) it was 7.01 µM; in test [3] (setting [7]) it was 5.66 µM; in test [3] (CCR6, run 2, dose range 1), 4.3 µM. Also, the IC50 was > 80 µM (inactive) in test [4] (dose range 1) and above 80 µM in test [4] (setting [5]).

On to `CCOC(=O)CSc1cccc2cccnc12`, for which the IC50 is 4.5 µM in test [1] (dose range 1); 5.48 µM in test [1] (setting [5]); 6.81 µM in test [1] (run 2, dose range 1); 5.13 µM in test [1] (run 3, dose range 1); 7.12 µM in test [2] (CXCR6, dose range 1); 5.86 µM in test [2] (setting [6]). Moreover, the IC50 in test [2] (CXCR6, run 1, dose range 2) was 3.95 µM; in test [2] (CXCR6, run 2, dose range 1) it was 8.08 µM; in test [2] (CXCR6, run 2, dose range 2), 4.32 µM; in test [3] (CCR6, dose range 1), 4.64 µM; in test [3] (setting [7]) it was 5.27 µM; in test [3] (CCR6, run 2, dose range 1), 5.89 µM. Moreover, the IC50 is > 80 µM (inactive) in test [4] (dose range 1) and above 80 µM in test [4] (setting [5]).

With `N#CC(C#N)=C1C=CC=CN1/C(=C\c1ccccc1Cl)C(=O)c1ccccc1`, the IC50 was 14.4 µM in test [1] (dose range 1); 14.5 µM in test [1] (setting [5]); 11.7 µM in test [1] (run 2, dose range 1); 17.5 µM in test [1] (run 3, dose range 1); 7.69 µM in test [2] (CXCR6, dose range 1); 9.06 µM in test [2] (setting [6]). For the same compound, the IC50 in test [2] (CXCR6, run 1, dose range 2) was 9.82 µM; in test [2] (CXCR6, run 2, dose range 1), 7.88 µM; in test [2] (CXCR6, run 2, dose range 2), 10.8 µM; in test [3] (CCR6, dose range 1), 7.75 µM; in test [3] (setting [7]), 6.75 µM; in test [3] (CCR6, run 2, dose range 1), 5.76 µM. Also, the IC50 is > 80 µM (inactive) in test [4] (dose range 1) and above 80 µM in test [4] (setting [5]).

For `COc1ccc(NC(=O)/C(Cl)=C(/Cl)S(=O)(=O)Cc2ccc(C)cc2)cn1`, the IC50 in test [1] (dose range 1) was 0.686 µM; in test [1] (setting [5]), 0.684 µM; in test [1] (run 2, dose range 1), 0.685 µM; in test [1] (run 3, dose range 1), 0.68 µM; in test [2] (CXCR6, dose range 1) it was 0.963 µM; in test [2] (setting [6]), 0.897 µM. Besides, the IC50 in test [2] (CXCR6, run 2, dose range 1) was 0.832 µM; in test [3] (CCR6, dose range 1), 0.489 µM; in test [3] (setting [7]), 0.686 µM; in test [3] (CCR6, run 2, dose range 1), 0.883 µM; in test [4] (dose range 1), > 80 µM (inactive); in test [4] (setting [5]) it was above 80 µM. Moreover, the inhibition in test [2] (CXCR6, run 1, dose range 2, at 10 µM (top of the series)) came out at 99.9%.

As to `CCn1c(=O)c([N+](=O)[O-])c(Cl)c2ccccc21`, the 50% inhibitory concentration (IC50) in test [1] (dose range 1) was 31.9 µM; in test [1] (setting [5]) it was 35.8 µM; in test [1] (run 2, dose range 1), 21.3 µM; in test [1] (run 3, dose range 1) it was 54.3 µM; in test [2] (CXCR6, dose range 1), 4.19 µM; in test [2] (setting [6]), 7.64 µM. Also, the IC50 is 4.43 µM in test [2] (CXCR6, run 1, dose range 2); 17.8 µM in test [2] (CXCR6, run 2, dose range 1); 4.13 µM in test [2] (CXCR6, run 2, dose range 2); 3.29 µM in test [3] (CCR6, dose range 1); 3.6 µM in test [3] (setting [7]); 3.91 µM in test [3] (CCR6, run 2, dose range 1). Moreover, the IC50 in test [4] (dose range 1) is > 80 µM (inactive); in test [4] (setting [5]) it was above 80 µM.

For the compound `Cc1ccccc1Oc1cc(-n2ncc(Cl)c(Cl)c2=O)ncn1`, the IC50 is 3.31 µM in test [1] (dose range 1); 4.62 µM in test [1] (setting [5]); 5.92 µM in test [1] (run 2, dose range 1); above 80 µM in test [1] (run 3, dose range 1); 1.57 µM in test [2] (CXCR6, dose range 1); 1.48 µM in test [2] (setting [6]). In addition, the IC50 is 1.38 µM in test [2] (CXCR6, run 2, dose range 1); 1.27 µM in test [3] (CCR6, dose range 1); 1.51 µM in test [3] (setting [7]); 1.75 µM in test [3] (CCR6, run 2, dose range 1); > 80 µM (inactive) in test [4] (dose range 1); above 80 µM in test [4] (setting [5]). The inhibition in test [2] (CXCR6, run 1, dose range 2, at 80 µM (top of the series)) came out at 105%.

Consider `COc1cc(/C=C/c2ccc3c(Br)cc(Br)c(O)c3n2)ccc1O`, for which the IC50 was 20.3 µM in test [1] (dose range 1); 23.7 µM in test [1] (setting [5]); 18.8 µM in test [1] (run 2, dose range 1); 32.2 µM in test [1] (run 3, dose range 1); 12.5 µM in test [2] (setting [6]); 8.69 µM in test [2] (CXCR6, run 1, dose range 2). Further, the IC50 in test [2] (CXCR6, run 2, dose range 1) is 11.8 µM; in test [2] (CXCR6, run 2, dose range 2), 12.5 µM; in test [3] (CCR6, dose range 1), 12.6 µM; in test [3] (setting [7]) it was 12.1 µM; in test [3] (CCR6, run 2, dose range 1), 11.6 µM; in test [4] (dose range 1), > 80 µM (inactive). The IC50 in test [4] (setting [5]) was above 80 µM. In addition, the IC50 entry in test [2] (CXCR6, dose range 1) is “inactive”.

(Values after PubChem BioAssay AID624129 (Sanford-Burnham Center for Chemical Genomics, 2012).)
